In patent US10555986B2, “Dietary supplement derived from natural prodcuts by hot melt extrusion (HME) processing” (INSTITUTO DE CAPACITACIÓN E INVESTIGACIÓN DEL PLÁS, priority 2017, dated 2020):

How the values were obtained:
[1] = relative to mannitol; background statement; cited from earlier work
[2] = release profile of (−)-Epicatechin in artificial saliva at pH 6.2 and 23° C.; assay type: physicochemical; conditions: artificial saliva pH 6.2, 23° C.
Experimental: FIG. 20 describes the release profile of (−)-Epicatechin in artificial saliva at pH 6.2 and 23° C. for examples X to XIII with a particle size distribution between 250 μm and 425 μm (Mesh 40).
FIG. 21 illustrates the release profile of (−)-Epicatechin in artificial saliva at pH 6.2 and 23° C. for EXAMPLE X to XIII with a particle size distribution between 180 μm and 250 μm (Mesh 60).

[3] = after permanent coronary occlusion; background statement; cited from earlier work
[4] = background statement; cited from earlier work
[5] = release profile of (−)-Epicatechin, 2 hour in medium pH 1.2 and 2 more hours in medium pH 6.8, at 37° C.; assay type: physicochemical
Experimental: Releases for EXAMPLES I TO V.
FIG. 22 features release profile of (−)-Epicatechin at 2 hour in a medium with pH of 1.2 and 2 more hours in a medium with pH of 6.8, at 37° C. Releases for examples X to XIII with a particle size distribution between 250 μm and 425 μm (Mesh 40); and particle size distribution between 180 μm and 250 μm (Mesh 60).

% release ([2]; 30 s): 75.30%
release profile percentages ([2]; 30 s, Table 13): 75.30%
release profile percentages ([2]; 30 s, Table 14): 75.30%
% release ([2]; 60 s): 88.70%
release profile percentages ([2]; 60 s, Table 13): 88.70%
release profile percentages ([2]; 60 s, Table 14): 88.70%
% release ([2]; 120 s): 93.43%
release profile percentages ([2]; 120 s, Table 13): 93.43%
release profile percentages ([2]; 120 s, Table 14): 93.43%
% release ([5]; 1 h, medium pH 1.2, 37° C.): 98.59%
release profile percentages ([5]; 1 h, medium pH 1.2, 37° C., Table 13): 98.59%
release profile percentages ([5]; 1 h, medium pH 1.2, 37° C., Table 14): 98.59%
% release ([5]; 2 h, medium pH 1.2, 37° C.): 99.94%
release profile percentages ([5]; 2 h, medium pH 1.2, 37° C., Table 13): 99.94%
release profile percentages ([5]; 2 h, medium pH 1.2, 37° C., Table 14): 99.94%
% release ([5]; 3 h, 2 h pH 1.2 then medium pH 6.8, 37° C.): 100.22%
release profile percentages ([5]; 3 h, 2 h pH 1.2 then pH 6.8, 37° C., Table 13): 100.22%
release profile percentages ([5]; 3 h, 2 h pH 1.2 then pH 6.8, 37° C., Table 14): 100.22%
% release ([5]; 4 h, 2 h pH 1.2 then medium pH 6.8, 37° C.): 100.84%
release profile percentages ([5]; 4 h, 2 h pH 1.2 then pH 6.8, 37° C., Table 13): 100.84%
release profile percentages ([5]; 4 h, 2 h pH 1.2 then pH 6.8, 37° C., Table 14): 100.84%
SMILES: Oc1cc(O)c2c(c1)O[C@H](c1ccc(O)c(O)c1)[C@H](O)C2 [EPICATECHIN AT 90%, (−)-Epicatechin (2R,3R)]
quenches OH more effectively than mannitol [1]: 100 times
reduction in scar (infarct) size [3]: approximately 33%
oral bioavailability [4]: less than 5%
